Laboratory results reported in PMC7747594, “Protease-activated receptor-2 ligands reveal orthosteric and allosteric mechanisms of receptor inhibition” (Communications Biology, 2020).
Values joined by “and” are separate entries in the source; they are usually repeats but may differ in a detail not shown here. Identical values can stand only once. Values belong to the compound of their own block, whether it stands above or below them.

Experiments:
Assay type in all cases: cell-based
hPAR2 [1] = target: T1, hPAR2 (Homo sapiens, UniProt P55085); experiment: IP1 HTRF assay, inhibition of SLIGRL-NH2 in 1321N1-hPAR2 cells; conditions: SLIGRL-NH2, 1321N1-hPAR2 cells; mean ± s.e.m.; read-out: IP1 (hPAR2) pIC50 (converted)
T1 sequence (P55085 26-397): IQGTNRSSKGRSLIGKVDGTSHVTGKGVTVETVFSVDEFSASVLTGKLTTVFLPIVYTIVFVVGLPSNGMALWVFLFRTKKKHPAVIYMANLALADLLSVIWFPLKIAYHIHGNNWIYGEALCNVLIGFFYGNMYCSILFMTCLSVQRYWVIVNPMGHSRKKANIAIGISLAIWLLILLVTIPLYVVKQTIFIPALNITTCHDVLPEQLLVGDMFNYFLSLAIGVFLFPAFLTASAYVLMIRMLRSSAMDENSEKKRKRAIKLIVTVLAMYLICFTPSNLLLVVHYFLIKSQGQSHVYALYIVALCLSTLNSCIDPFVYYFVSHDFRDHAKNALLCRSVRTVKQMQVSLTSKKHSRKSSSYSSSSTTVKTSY
Description: Inhibition of PAR2-induced inositol-1-phosphate (IP1) production was measured in 1321N1-hPAR2 cells using IP-One Gq HTRF assay kit (Cisbio). […] Next, EC80 of SLIGRL-NH2 (70 µM) supplemented with 50 mM LiCl was added and incubated for 60 min at 37 °C. Detection of IP1 production was performed according to the manufacturer’s protocol and HTRF was measured using PHERAstar (BMG LabTech). Data were normalised to [IP1] using a standard curve.
(§1) Binding data were analysed using the One site – Fit Ki model in GraphPad Prism 8 (GraphPad Software) to determine binding affinity. Pharmacology in vitro potency data was analysed with a 4-parameter logistic fit using the equation y = Bottom + (Top − Bottom)/[…] where y is the response, x is the 10-logarithm of the drug concentration, Bottom is no response and Top is full response in GraphPad Prism 8 or Genedata Screener (Genedata). pEC50 and pIC50 data are presented as mean ± standard error of the mean (s.e.m.) derived from the number of independent experiments stated. Schild slope analysis was calculated using Graphpad Prism 8 Gaddum/Schild EC50 global fitting (shared model parameters between all data sets) competitive model. […] Schild slope quantifies the shifts in agonist response in the presence of antagonist, a Schild slope of 1 indicates the antagonist is competitive and extra-sum-of-squares F-test (p < 0.05) was used to compare the calculated Schild slope against a hypothetical Schild slope of 1. […] The relative activity was calculated using (EmaxEC50’)/(Emax’EC50) with the Hill slope help constant at 1. EC50’ and Emax’ denote the EC50 and Emax in the absence of allosteric modulator, while EC50 and Emax denote those measured in the presence of allosteric modulator. When the Hill slope = 1, the relative activity plot approaches an asymptote corresponding to the estimate of the γ value.

hPAR2 [2] = target: T1, hPAR2; experiment: Ca^2+ flux assay (FLIPR), inhibition of SLIGRL-NH2 activation in 1321N1-hPAR2 cells; conditions: SLIGRL-NH2, 1321N1-hPAR2 cells; mean ± s.e.m.; read-out: Ca^2+ flux (hPAR2) pIC50 (converted)
Description: (§2) Cells were loaded with Fluo-8 NW calcium dye (AAT Bioquest) for 30 min at 37 °C before compounds in Hank’s balanced salt solution (HBSS, ThermoFisher Scientific) with 20 mM HEPES (ThermoFisher Scientific), 0.1% bovine serum albumin (BSA, Sigma) and 0.5% DMSO were added and simultaneously evaluated for changes in intracellular [Ca^2+] using FLIPR TETRA (Molecular Devices) to detect agonism. For each concentration, the difference between the maximum peak Ca^2+ response and baseline response is reported. […] Antagonism experiments were also carried out on 1321N1-PAR2[WT], 1321N1-PAR2[F154A], and 1321N1-PAR2[G157C] as described. Experiments with trypsin in 1321N1-hPAR2 cells were performed in the presence of 1 µM Vorapaxar (Chemtronica) to remove any interference of PAR1 activity. […] Antagonism experiments for CHO-hPAR2 and HT-29 cells were performed in 96-well plates at 30,000 cells/well. Cells were loaded with Fluo-3 AM calcium dye (Sigma-Aldrich) for 60 min at 37 °C in HBSS with 1% FBS, 0.2% pluronic acid, 20 mM HEPES and 2.5 mM probenecid prior to the addition of antagonist. The antagonist was pre-incubated for 60 min at 37 °C followed by the addition of bovine trypsin (30 nM) at EC80. Intracellular [Ca^2+] flux was measured using FLIPR TETRA (Molecular Devices) and the difference between the maximum peak Ca^2+ response and baseline response is reported.
as §1

hPAR2 [3] = target: T1, hPAR2; experiment: pERK1/2 HTRF assay, inhibition of SLIGRL-NH2 in U2OS-hPAR2 cells; conditions: SLIGRL-NH2, U2OS-hPAR2; mean ± s.e.m.; read-out: pERK1/2 (hPAR2) pIC50 (converted)
Description: Phosphorylation of ERK1/2 was measured in U2OS-hPAR2 cells using Phospho-ERK1/2 (Thr202/Tyr204) assay kit (64ERKPEH Cisbio) and the 2 plate manufacturer’s protocol with the following modifications. Cells were seeded in McCoy’s 5A media containing 10% FBS at 15,000 cells per well in 384-well plates and incubated overnight at 37 °C, 5% CO2. Antagonist compounds (30 µM–1 nM) were incubated with the cells for 30 min prior to the addition of agonist SLIGRL-NH2 (10 µM) at EC80 and further incubation for 5 min at 37 °C. The supernatant was removed from the wells and lysis buffer was added to the cells and incubated with shaking at room temperature for 30 min. The cell lysate was transferred into a small-volume 384-well plate containing detection antibodies and incubated for 4 h at room temperature in the dark. Plates were read for HTRF signal on PHERAstar (BMG LabTech). In addition, phosphorylation of ERK1/2 was measured in CHO-hPAR2 using AlphaLISA SureFire Ultra pERK1/2 (Thr202/Tyr204) (Perkin Elmer). Cells were seeded at a density of 2000 cells per well in a 384-well proxiplate and incubated overnight. […] After incubation, cell lysis buffer was added with shaking for 30 min. Antibodies and beads were added and incubated for 4 h at room temperature. AlphaLISA signal was measured using a PHERAstar (BMG LabTech).
as §1

hPAR2 [4] = target: T1, hPAR2; experiment: Ca^2+ flux assay, inhibition of trypsin activation in 1321N1-hPAR2 cells (with 1 µM Vorapaxar); conditions: 1321N1-hPAR2 cells, 1 µM Vorapaxar
rat PAR2 = target: T2, rat PAR2 (Rattus norvegicus, UniProt Q63645); experiment: Ca^2+ flux assay, inhibition of SLIGRL-NH2 activation in rat KNRK cells; conditions: SLIGRL-NH2, rat PAR2 in KNRK cells; mean ± s.e.m.; read-out: Ca^2+ flux (rPAR2) pIC50 (converted)
T2 construct: a rat KNRK cell line with endogenous expression of rat PAR2; host or cells: rat KNRK cells
T2 sequence (Q63645 26-397): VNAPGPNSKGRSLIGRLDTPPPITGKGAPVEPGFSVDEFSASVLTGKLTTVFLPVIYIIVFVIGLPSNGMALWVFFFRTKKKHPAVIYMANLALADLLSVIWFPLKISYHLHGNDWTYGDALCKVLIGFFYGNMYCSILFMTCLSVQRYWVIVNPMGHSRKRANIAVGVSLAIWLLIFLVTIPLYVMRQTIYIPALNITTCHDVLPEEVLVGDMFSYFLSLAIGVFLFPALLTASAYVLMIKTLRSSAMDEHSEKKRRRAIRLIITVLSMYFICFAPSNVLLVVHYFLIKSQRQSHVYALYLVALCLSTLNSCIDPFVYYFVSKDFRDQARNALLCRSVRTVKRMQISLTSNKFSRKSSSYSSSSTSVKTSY

hPAR2 [5] = target: T1, hPAR2; experiment: β-arrestin-2 recruitment assay, inhibition of SLIGRL-NH2 in U2OS-hPAR2 cells; conditions: SLIGRL-NH2, U2OS-hPAR2; mean ± s.e.m.; read-out: β-arrestin (hPAR2) pIC50 (converted)
Description: β‐Arrestin-2 recruitment was measured in U2OS-hPAR2 cells using the DiscoverX assay kit, according to the manufacturer’s instructions. Briefly, cells were seeded in McCoy’s 5A media containing 10% FBS at 4000 cells per well in 384-well plates and incubated overnight at 37 °C, 5% CO2. Antagonist compounds (30 µM–1 nM) were incubated with the cells for 30 min prior to the addition of agonist SLIGRL-NH2 (10 µM) at EC80 and further incubation for 90 min at 37 °C. Working detection solution (12 µl) was then added to each well, incubated at room temperature in the dark for 60 min and the chemiluminescence signal read on the EnVision microplate reader (Perkin Elmer).
as §1

parental 1321N1 cells = experiment: Ca^2+ flux assay, agonist mode, parental 1321N1 cells; set-up: Ca2+ response (Fig 2c), individual replicate values: unit not given here; conditions: control
Description: as §2

hPAR2 [6] = target: T1, hPAR2; experiment: Schild and allosteric model analysis of Ca^2+ mobilisation in CHO-hPAR2 cells (2f-LIGRL-NH2 or trypsin); set-up: key to Relative activity: (Emax·EC50')/(Emax'·EC50), Hill slope held at 1; Emax: scale not given here
Description: as §2, §1

[7] = agonist in presence of AZ3451 0.1 µM
[8] = agonist in presence of AZ3451 0.3 µM
[9] = agonist in presence of AZ3451 1 µM
[10] = agonist in presence of AZ3451 3 µM
[11] = agonist in presence of AZ3451 10 µM
[12] = agonist in presence of AZ3451 30 µM, CHO-hPAR2, Ca^2+

- IC50 (hPAR2 [1]): 79.4 nM
- IC50 (hPAR2 [2]): 7.94 nM
- IC50 (hPAR2 [3]): 200 nM
- shape of inhibition of trypsin-induced Ca^2+ mobilisation (hPAR2 [4]): biphasic inhibition curves
- IC50 (rat PAR2): 5.01 nM
- IC50 (hPAR2 [5]): 63.1 nM
Compound: C[C@@H](C1CCOCC1)n1c(-c2cc3c(cc2Br)OCO3)nc2cc(C(=O)Nc3ccc(C#N)cc3)ccc21 [AZ7126]

- IC50 (hPAR2 [1]): 302 nM
- IC50 (hPAR2 [2]): 20 nM
- IC50 (hPAR2 [3]): 1260 nM
- shape of inhibition of trypsin-induced Ca^2+ mobilisation (hPAR2 [4]): biphasic inhibition curves
- IC50 (rat PAR2): 7.94 nM
- IC50 (hPAR2 [5]): 380 nM
Compound: C[C@@H](C1CCCCC1)n1c(-c2cc3c(cc2Br)OCO3)nc2cc(C(=O)Nc3ccccc3)ccc21 [AZ8935]

Compound: CC[C@H](C)[C@H](NC(=O)[C@H](CC1CCCCC1)NC(=O)c1ccno1)C(=O)NCc1cccc(C(=O)N2CCC(CN)CC2)c1 [GB110, reference compound]
- Ca2+ response (Fig 2c), individual replicate values (parental 1321N1 cells; [compound],M -4.30103): 2.5854 and 0.2936 and 4.934 and 1.6114
- Ca2+ response (Fig 2c), individual replicate values (parental 1321N1 cells; [compound],M -4.77815): 2.299 and 3.846 and -3.259
- Ca2+ response (Fig 2c), individual replicate values (parental 1321N1 cells; [compound],M -5.25527): 4.705 and 2.815 and -0.222 and 3.388
- Ca2+ response (Fig 2c), individual replicate values (parental 1321N1 cells; [compound],M -5.73239): 1.44 and 1.382
- Ca2+ response (Fig 2c), individual replicate values (parental 1321N1 cells; [compound],M -6.20952): 3.273 and 1.783 and 1.382 and 0.4082
- Ca2+ response (Fig 2c), individual replicate values (parental 1321N1 cells; [compound],M -6.68664): 2.872 and -6.524
- Ca2+ response (Fig 2c), individual replicate values (parental 1321N1 cells; [compound],M -7.16376): -2.227 and 0.1217 and -2.055 and -7.498
- Ca2+ response (Fig 2c), individual replicate values (parental 1321N1 cells; [compound],M -7.64088): -2.514 and 3.502 and -1.826 and -6.754
- Ca2+ response (Fig 2c), individual replicate values (parental 1321N1 cells; [compound],M -8.118): -3.774 and -3.545 and -0.5085
- Ca2+ response (Fig 2c), individual replicate values (parental 1321N1 cells; [compound],M -8.59512): -10.4777 and -3.774 and -5.436 and -3.201

- Emax (hPAR2 [6]; agonist alone, AZ3451 0 µM): 102
- EC50 (hPAR2 [6]; agonist alone, AZ3451 0 µM, read-out: EC50): 6 nM
- Emax (hPAR2 [6]; [7]): 96
- Emax (hPAR2 [6]; [8]): 90
- Emax (hPAR2 [6]; [9]): 90
- Emax (hPAR2 [6]; [10]): 89
- Emax (hPAR2 [6]; [11]): 74
- Emax (hPAR2 [6]; [12]): 61
Compound: Trypsin
- Relative activity (hPAR2 [6]; agonist alone, AZ3451 0 µM): 1
- Relative activity (hPAR2 [6]; [7]): 0.43
- Relative activity (hPAR2 [6]; [8]): 0.28
- Relative activity (hPAR2 [6]; [9]): 0.20
- Relative activity (hPAR2 [6]; [10]): 0.17
- Relative activity (hPAR2 [6]; [11]): 0.12
- Relative activity (hPAR2 [6]; [12]): 0.09
